Data as given in EP2511272B1, “Synthetic analogues of abscisic acid with anti-inflammatory and insulin release stimulation effects on human cells” (Universita' degli Studi di Genova, priority 2011, dated 2012).

Assays:
granulocytes = test: Inhibition of ABA-induced chemotaxis (granulocyte migration, ChemoTx); assay type: cell-based, human
Protocol: After ON (overnight) incubation in complete DMEM/F12, granulocytes were washed in HBSS and then were resuspended at the concentration of 1x10^7 cells/ml in chemotaxis buffer (HBSS:PBS:5% albumin; 39:16:1).
Chemotaxis was carried out on 96-well plates ChemoTx system microplates (Neuro Probe, Inc., Gaithersburg, MD, U.S.A.) with a polycarbonate filter with 3 µm-diameter pores. The compound prepared according to example 1 was diluted in chemotaxis buffer at various concentrations (5 µM, 100 nM, 1 nM, 0.1 nM) and was added, either alone or together with a solution of 1 µM ABA to the bottom of the plate. The suspension of the cells (25 µl/well) was added to the filter and the plate was incubated for 90 minutes at 37 °C. The migrated cells were transferred to a white 96-well plate and were counted with 60 µl of a solution containing 0.2 % (v/v) of Nonidet P40 and 1 µM Sitox green. After a 20-minute incubation at 37 °C, the fluorescence was measured with Fluostar OPTIMA fluorometer (excitation wavelength λexc = 485 nm and emission wavelength λemis = 520 nm) and the cell number was computed by using a standard cellular curve obtained from serial diltion cellular suspension of granulocytes. The result is expressed as the "chemotactic index" (CI), which corresponds to the ratio of the number of cells migrated towards the chemoattractant divided by the number of cells migrated towards the substrate). A chemotactic index higher than 1 is indicative of chemoattraction of cells. The test was carried out three times in sextuplicate.

[1] = test system: Human pancreatic beta cells; test: Insulin release (secretion index) by human pancreatic beta cells; assay type: cell-based
Protocol: Human pancreatic beta cells were incubated in 5 […], or 25 mM glucose (HG), in the absence or in the presence of 100 nM ABA or of compound according to example 1 ([…]). Insulin release is expressed as the secretion index (SI) relative to insulin release in LG..
As in the preceding example, for the experimental procedere, reference may be made to the there cited paper, except for the specific use of compound according to example 1. TABLE 13. Effect of ABA and of compound prepared according to example 1 on insulin release (SI) by human pacreatic beta cells at 30 minutes and 120 minutes.

INS-1 cells = test: Insulin release (secretion index) by INS-1 cells, scr or LANCL-2 silenced; assay type: cell-based, rat; settings: 30 minutes
Protocol: Insulinoma cells of INS-1 rat were transfected with LANCL-2 silencing RNAs LANCL-2 (siRNAL2) or with nonsense RNA (scr) and were incubated in 5 mM glucose (LG) oppure 25 mM glucose (HG), in the absence or in the presence of 100 nM ABA or of compound according to example 1 (100 nM). Insulin release is expressed as the secretion index (SI) relative to insulin release in LG. As regards the experimental procedure, with the exception of use of compound according to example 1, reference can be made to the following paper, in which the properties which are the subject-matter of the present example were investigated for only ABA. Sturla L, Fresia C, Guida L, Grozio A, Vigliarolo T, Mannino E, Millo E, Bagnasco L, Bruzzone S, De Flora A, Zocchi E. Binding of abscisic acid to human LANCL2. Biochem Biophys Res Commun. 2011 Nov 18;415(2):390-5. TABLE 12. Effect of ABA and of compound from example 1 on insulin release (SI) by […] at 30 minutes.

human granulocytes = test: Production of reactive oxygen species (ROS), H2DCFDA fluorescence; assay type: cell-based
Protocol: Human granulocitytes, after ON incubation in complete DMEM/F12, were resuspended at 1x10^7/ml in HBSS and spiked with the fluorescent probe (10 µM), specific for ROS determination, 2',7'-dichlorodihydrofluorescein diacetate (H2DCFDA), for 30 min at 37 °C.
They were subsequently washed twice with HBSS and resuspended at 1x10^6 cells/ml in HBSS and then were kept at room temperature for approximately 30 minutes.
The cells (100 µl) were added to a 96-well plate pre-loaded with ABA 1 µM, either alone or with increasing concentrations of the compound prepared according to example 1.
The increase in fluorescence was measured at 10-sec intervals for 10 minutes, with Fluostar OPTIMA fluorometer (λexc: 485; λemis: 520).
The experiment was carried out three times in triplicate.
Human granulocutes stimulated with 1 µM ABA become activated, and produce quite large amounts of reactive oxygen species (ROS) (Bruzzone, jbc 2007). The results were expressed as the average of the results obtained from three independent experiments, from which the background value, obtained from the control, had been subtracted. TABLE 4. Inhibition of ROS production, in human granulocytes stimulated with ABA, by compound prepared according to example 1.

human monocytes = test: Inhibition of ABA-induced MCP-1 production in monocytes (ELISA); assay type: cell-based; settings: 6 h
Protocol: Monocytes, 25 x 10^6/Petri in complete RPMI, were incubated for 6 h with 100 nM ABA either alone, or in the presence of compound prepared according to example 1, at a concentration of 1 µM. At the end of the incubation, the substrate was centrifuged at 17,000xg for 5 minutes and the release of MCP-1 (monocyte chemotactic protein-1) was quantitated by means of kit MC=-1 Elisa kit (GE Healthcare), in accordance with the instructions supplied by the manufacturer.
The cells were lysed in 200 µl of deionized water in order to quantitate total proteins by the Bradford method, after thre preliminary generation of a reference standard curve, obtained with different concentrations of bovine serum albumin. The spectrophotometric measurements were carried out at wavelength of 595 nm.
The experiment was carried out three times in sextuplicate.
The results were expressed as the average of the results from three independent experiments, as referred to control value. […] TABLE 8. Inhibition of MCP-1 production in human monocytes by compound prepared according to example 1

[2] = LG, substance 100 nM, at 30 minutes
[3] = LG, substance 100 nM, at 120 minutes
[4] = LANCL2 siRNA, HG (25 mM glucose), substance 100 nM
[5] = LANCL2 siRNA, LG (5 mM glucose), substance 100 nM
[6] = SCR, HG (25 mM glucose), substance 100 nM
[7] = SCR, LG (5 mM glucose), substance 100 nM

CC1=CC(=O)CC(C)(C)C1(O)/C=C/C(C)=C\C(=O)O (racemic) [ABA, (2Z,4E)-5-(1-hydroxy-2,6,6-trimethyl-4-oxo-2-cyclohexen-1-yl)-3-methyl-2,4-pentadienoic acid, reference compound]
CI±SD (chemotactic index) (granulocytes; ABA 1 µM alone): 1.63±0.10
SI (insulin secretion index relative to LG) [1, 2]: 0,91
SI (insulin secretion index relative to LG) [1, 3]: 1,8
insulin release, secretion index (SI) relative to LG (INS-1 cells; [4]): 1.7
insulin release, secretion index (SI) relative to LG (INS-1 cells; [5]): 1
insulin release, secretion index (SI) relative to LG (INS-1 cells; [6]): 6.4
insulin release, secretion index (SI) relative to LG (INS-1 cells; [7]): 1.7
Increase in fluorescence (delta OD)±SD (human granulocytes; ABA 1 µM alone): 1238±8.7 delta OD
MCP-1 relatively to control ± SD (human monocytes; ABA 100 nM alone): 2±0.2

CC(=C/C(=O)O)/C=C/C1(O)C(C)(C)CC(=O)C2OC21C (stereo not drawn) [Example 1, 2'α,3'α-dihydro-2'α,3'α-epoxyabscisic acid]
CI±SD (chemotactic index) (granulocytes; ABA 1 µM + compound 0.1 nM): 1.37±0.05
CI±SD (chemotactic index) (granulocytes; ABA 1 µM + compound 1 nM): 1.32±0.05
CI±SD (chemotactic index) (granulocytes; ABA 1 µM + compound 100 nM): 1.12±0.04
CI±SD (chemotactic index) (granulocytes; ABA 1 µM + compound 5 µM): 0.78±0.03
IC50 (granulocytes; Homo sapiens): ~1 nM
inhibition at 0.0001 µM (granulocytes; Homo sapiens, migration towards ABA 1 µM, compound 0.1 nM): 38%
inhibition at 0.001 µM (granulocytes; Homo sapiens, migration towards ABA 1 µM, compound 1 nM): 47%
inhibition at 0.1 µM (granulocytes; Homo sapiens, migration towards ABA 1 µM, compound 100 nM): 80%
inhibition at 5 µM (granulocytes; Homo sapiens, migration towards ABA 1 µM, compound 5 µM): 100%
SI (insulin secretion index relative to LG) ([1]; HG, ABA (100 nM) + compound (100 nM) together, time not printed in the row): 3,8
SI (insulin secretion index relative to LG) ([1]; LG, ABA (100 nM) + compound (100 nM) together, time not printed in the row): 0,72
SI (insulin secretion index relative to LG) [1, 2]: 1,8
SI (insulin secretion index relative to LG) [1, 3]: 2,2
insulin release, secretion index (SI) relative to LG (INS-1 cells; [4]): 3
insulin release, secretion index (SI) relative to LG (INS-1 cells; LANCL2 siRNA, HG, ABA 100 nM + compound 100 nM together): 8
insulin release, secretion index (SI) relative to LG (INS-1 cells; [5]): 2
insulin release, secretion index (SI) relative to LG (INS-1 cells; LANCL2 siRNA, LG, ABA 100 nM + compound 100 nM together): 5
insulin release, secretion index (SI) relative to LG (INS-1 cells; [6]): 6
insulin release, secretion index (SI) relative to LG (INS-1 cells; SCR, HG, ABA 100 nM + compound 100 nM together): 12
insulin release, secretion index (SI) relative to LG (INS-1 cells; [7]): 2.5
insulin release, secretion index (SI) relative to LG (INS-1 cells; SCR, LG, ABA 100 nM + compound 100 nM together): 8.5
Increase in fluorescence (delta OD)±SD (human granulocytes; ABA 1 µM + compound 0.01 nM): 1325±26.5 delta OD
Increase in fluorescence (delta OD)±SD (human granulocytes; ABA 1 µM + compound 0.5 nM): 680±13.6 delta OD
Increase in fluorescence (delta OD)±SD (human granulocytes; ABA 1 µM + compound 1 nM): 371±1.9 delta OD
Increase in fluorescence (delta OD)±SD (human granulocytes; ABA 1 µM + compound 1 µM): 46±0.2 delta OD
inhibition at 10 pM (human granulocytes; Homo sapiens, ROS production, ABA 1 µM, compound 0.01 nM): 0%
inhibition at 0.0005 µM (human granulocytes; Homo sapiens, ROS production, ABA 1 µM, compound 0.5 nM): 45%
inhibition at 0.001 µM (human granulocytes; Homo sapiens, ROS production, ABA 1 µM, compound 1 nM): 70%
inhibition at 1 µM (human granulocytes; Homo sapiens, ROS production, ABA 1 µM, compound 1 µM): 96%
IC50 (human granulocytes; Homo sapiens, inhibiting the production of ROS, ABA 1 µM): ~0.5 nM
MCP-1 relatively to control ± SD (human monocytes; ABA 100 nM + compound 1 µM): 0.8±0.2
inhibition at 1 µM (human monocytes; Homo sapiens, Monocyte, ABA 100 nM + compound 1 µM): 100%
